Here are results for 5 molecules from patent US20090012005A1, “Use of an angiotensin IV antagonist to treat insulin resistance or cardiovascular risk related to metabolic syndrome” (priority 2007, published 2009).

The test system of assay [1] is angiotensinogen (AGT) and AT1 receptor (AT1R) expression in human vascular smooth muscle cells. The assay can be described thus: expression of angiotensinogen and AT1 receptors (mRNA) in primary human vascular smooth muscle cell cultures. In kind it is cell-based. As to conditions: for inhibition of the angiotensinogen (and AT1 receptor) response to angiotensin IV: 100 nM angiotensin IV, antagonist at increasing concentrations, given 30 minutes before angiotensin IV (FIG. 3). The protocol:
This effect may be measured by analyzing messenger RNA as well as the corresponding proteins.
Inhibition of these effects of angiotensin IV by candidate compounds is the foundation of the model. These cellular models encompass a screening approach as well as quantitative approaches. Angiotensin IV is used at a concentration of 100 nM, a concentration at which its binding to angiotensin II receptors is minimal.
(§1) The inventors used primary cultures and vascular muscle smooth cell lines of various species (man, rat, mouse); all cell lines in which angiotensin IV exerts stimulatory effects on the expression of angiotensinogen and angiotensin II AT1 receptors may be used. The confluent smooth muscle cells are placed in a serum-free culture medium (human vascular smooth muscle medium 2 from Promocell, or any other equivalent medium), in order to block their multiplication and to synchronize them. After 24 hours of habituation in this culture medium, the medium is replaced by fresh medium to which the various test substances are added according to the order adapted to the experimental protocol. Measurements are taken after 24 hours of treatment in the case of analyses of angiotensinogen and AT1 receptor expression. The antagonists are applied to the cells 30 minutes before angiotensin IV. The cells are exposed to 100 μU/ml of insulin to measure glucose uptake.
The results are the mean of pairs of measurements taken in human vascular smooth muscle cells from six patients.

The subject of assay [2] is human vascular smooth muscle cells. Briefly: insulin-induced 3H-deoxyglucose uptake in human vascular smooth muscle cells. In kind it is cell-based. The following applies: for reversion of the inhibition by angiotensin IV of insulin-induced glucose uptake: antagonist pretreatment, cells from five patients (FIG. 5); for amplitude of maximum effect / lower plateau: inhibition of insulin-induced deoxyglucose uptake, 4-parameter logistic regression (FIG. 4).
Source text: This effect by angiotensin IV is not blocked by angiotensin II AT1 receptor antagonists or by angiotensin II AT2 receptor antagonists.
Angiotensin IV inhibits insulin-induced glucose uptake in vascular smooth muscle cells by a mechanism independent of angiotensin II AT1 and AT2 receptors.
as §1
The results are the mean of pairs of measurements taken in cells from six patients.

Entries after “also recorded” stand apart in the source; their conditions may differ. Square brackets hold non-standard residues; d marks the D form. Peptide text beside a SMILES is read from it. * marks the point of attachment. ξ: configuration not given here. β3hF = N[C@H](CC(=O)O)Cc1ccccc1; Ile(3ξ) = CCC(C)[C@H](N)C(=O)O; X1 = CC(C)C(CN)C(=O)*

Take `CC(C)[C@H](N)CN[C@@H](Cc1ccc(O)cc1)C(=O)N[C@H](CN[C@@H](Cc1c[nH]cn1)C(=O)N1CCC[C@H]1C(=O)N[C@@H](Cc1ccccc1)C(=O)O)C(C)C` [divalinal, N-Val-(CH2—NH)-Tyr-Val(CH2—NH)-His-Pro-Phe]: the “inhibition of the angiotensinogen (and AT1 receptor) response to angiotensin IV” value (“inhibition of the angiotensinogen” below) in assay [1] is “inhibition; also recorded: weaker depressor of the maximum response”. The “reversion of the inhibition by angiotensin IV of insulin-induced glucose uptake” value (“reversion of the inhibition” for short) in assay [2] is recorded as “reversion”.
On to “Angiotensin II: angiotensin peptide hormone acting on AT1 and AT2 receptors, used for comparison (DRVYIHPF; Angiotensin-2; UniProt P01019 25-32, looked up)”, for which, in assay [2], the “amplitude of maximum effect” value was 42.2%±6.4% and the lower plateau stood at 56.3±4.5.
`CCC(C)[C@H](NC(=O)[C@H](Cc1ccc(O)cc1)NC(=O)C(CN)C(C)C)C(=O)N[C@@H](Cc1c[nH]cn1)C(=O)N1CCC[C@H]1C(=O)N[C@H](CC(=O)O)Cc1ccccc1` (stereo partly drawn) [compound AL-11, H-β^2hVal-Tyr-Ile-His-Pro-β^3hPhe-OH] (X1-Y[Ile(3ξ)]HP[β3hF]-OH): in assay [1], the “inhibition of the angiotensinogen” value is “inhibition; also recorded: much more powerful in preventing the response”. Also, the “reversion of the inhibition” value in assay [2] is given as “reversion”.
Take `CC[C@H](C)[C@H](NC(=O)[C@H](Cc1ccc(O)cc1)NC(=O)[C@@H](N)C(C)C)C(=O)N[C@@H](Cc1cnc[nH]1)C(=O)N1CCC[C@H]1C(=O)N[C@@H](Cc1ccccc1)C(=O)O` [angiotensin IV, Val-Tyr-Ile-His-Pro-Phe]: the “effect on IRAP expression” value in assay [1] is recorded as “reduces”. Moreover, the “effect on expression of angiotensinogen and AT1 receptors” value in assay [1] (independent of AT1 receptors (FIG. 2)) is reported as “stimulating”. Also, in assay [2], the “amplitude of maximum effect” value is 58.0%±2.3% and the lower plateau came to 41.9±1.4.
Take LVV-hemorphin-7: in assay [1], the “inhibition of the angiotensinogen” value is “no activity”. Further, the “reversion of the inhibition” value in assay [2] was “no activity”.
